Assay results: article PMC11968394, “The effect of deuterated PLK1 inhibitor on its safety and efficacy in vivo” (Frontiers in Oncology, 2025)
Values joined by “and” are separate entries in the source; they are usually repeats but may differ in a detail not shown here. Identical values can stand only once. Like-named read-outs stand apart in the source and are kept apart here.

Tests used:
[1] = Caco-2 permeability assay; format: in vitro ADME; conditions: for Permeability classification: Caco-2, by comparing Propranolol, Digoxin, Prazosin; for recovery at 2 h, 5 μM / Papp A→B at 2 h, 5 μM / Papp B→A at 2 h, 5 μM: human; for Papp A→B at 2 h, 5 μM / Papp B→A at 2 h, 5 μM: Caco-2, 5 μM
Description: Caco-2 cells were cultured in 10% FBS DMEM for 14-21 days before assays. […] HBSS was added to the opposite chamber. After 2 hours incubation at 37°C, samples were analyzed by LC-MS/MS. Fluorescein leakage was tested by adding 100 μM fluorescein to the upper chamber and measuring fluorescence after 30 minutes.

[2] = design: method as in PMID 28726132; conditions: phase 1 clinical trial, given dosage, 5-day dosing time period; cited from earlier work
PSN1 = experiment: Cell viability (CellTiter-Glo, 72 h), PSN1; format: cell-based, Human; conditions: PSN1, 72 hours; for IC50: Homo sapiens; for Bottom: dose-response curve bottom; for Top: dose-response curve top
Description: (§1) Human pancreatic cancer cell lines (PSN1, PANC-1, Panc 04.03, MIA PaCa-2, BxPC-3, and Capan-1) were cultured in their respective culture media. PSN1 cell lines were maintained in RPMI 1640 + 10%FBS. MIA PaCa-2 cells were cultured in DMEM+10%FBS+5% horse serum. Panc 04.03 cells were grown in RPMI 1640 + 15%FBS+10μg/mL Insulin. PANC-1 cells were maintained in DMEM+10%FBS. BxPC-3 cells were cultured in RPMI 1640 + 10%FBS. Capan-1 cells were grown in IMDM+20%FBS. All cells were incubated at 37°C in a humidified atmosphere containing 5% CO2.
(§2) For assays, cells in the logarithmic growth phase were harvested, seeded to different concentrations at 2,000-6,000 cells/well in 96-well plates. Following overnight incubation, test compounds were added at various concentrations and incubated for 72 hours. Cell viability was assessed by the ATP concentration using the CellTiter-Glo reagent (Promega, Madison, WI 53711 USA), and luminescence values were recorded by a Multilabel Reader (PerkinElmer, Waltham, MA, USA).

Sprague-Dawley rats = experiment: Sprague-Dawley rat repeated administration toxicity study; conditions: for Death / survival after 9-day dosing: Sprague-Dawley rats, oral 15 mg/kg once a day, n=3; for Rats survived at day 14: female, Sprague-Dawley, po, 14 days
Description: Rat toxicity was studied at JOINN Laboratories (Suzhou, Jiangsu, China). […] […] […] Using 2 mL sterile syringes and gavage tubes, animals were dosed based on their most recent body weight, with volumes rounded to one decimal place. Test compounds were stirred continuously for at least 15 minutes before and during administration. The rats were dosed once a day for 14 days.

MIA PaCa-2 = experiment: Cell viability (CellTiter-Glo, 72 h), MIA PaCa-2; format: cell-based, Human; conditions: MIA PaCa-2, 72 hours; for IC50: Homo sapiens; for Bottom: dose-response curve bottom; for Top: dose-response curve top
Description: as §1, §2

HCT 116 CDX model = experiment: HCT 116 CDX model; format: in vivo, BALB/c nude mouse; conditions: for Tumor growth: BALB/c nude mice; for Mice died: BALB/c nude, 8 mice/group
Description: These studies were performed at Yikon Medical (Beijing, China). Cancer cell line HCT 116 or BxPC-3 were cultured in 10% FBS RPMI-1640 medium plus penicillin, streptomycin, and glutamine at 37°C and 5% CO2 until reaching confluency. Cells were then prepared for inoculation. 5×10⁷ cells/mL cells in 100 µL were inoculated subcutaneously into the right flank of each female BALB/c nude mouse for HCT 116 cell line or female NOD SCID mouse for BxPC-3 cell line. […] […] Mice were dosed at least 10 days and were monitored for 30 days.
TGI was calculated as follows.

[3] = Caco-2, Caco-2, A-B, read-out: Recovery A-B%
[4] = Caco-2, Caco-2, B-A, read-out: Recovery B-A%

SMILES | Permeability classification [1] | recovery at 2 h, 5 μM [1, 3] | recovery at 2 h, 5 μM [1, 4] | Papp A→B at 2 h, 5 μM [1] | Papp B→A at 2 h, 5 μM [1] | IC50 (PSN1) | Bottom (PSN1) | Top (PSN1) | Rats survived at day 14 (Sprague-Dawley rats; rat, in vivo, 15 mg/kg) | IC50 (MIA PaCa-2) | Bottom (MIA PaCa-2) | Top (MIA PaCa-2) | Tumor growth (HCT 116 CDX model) | Mice died (HCT 116 CDX model; 60 mg/kg, 60 mg/kg) | other results
CN1CCN(c2ccc(OC(F)(F)F)c(Nc3ncc4c(n3)-c3c(c(C(N)=O)nn3CCO)CC4)c2)CC1 [NMS-P937] | medium permeability | 71.6% | 93.3% | 6.1 ×10⁻⁶ cm/s | 34.2 ×10⁻⁶ cm/s | 48.9 nM | 2.3 | 85.9 | 2/3 | 196 nM | -4.1 | 78.7 | inhibited the growth of tumors in a dose-dependent manner | three mice died and 3/8 | Tolerability [2]: well tolerated; Death / survival after 9-day dosing (Sprague-Dawley rats; 15 mg/kg): 1 out of 3 rats treated with NMS-P937 died and Death of 1/3 rat; Body weight (HCT 116 CDX model; 60 mg/kg): significant loss of body weight; Mice died (HCT 116 CDX model; 30 mg/kg, 30 mg/kg): one mouse died and 1/8
[2H]C1([2H])N(C)C([2H])([2H])C([2H])([2H])N(c2ccc(OC(F)(F)F)c(Nc3ncc4c(n3)-c3c(c(C(N)=O)nn3CCO)CC4)c2)C1([2H])[2H] [PR00012] | medium permeability | 79.7% | 89.7% | 5.2 ×10⁻⁶ cm/s | 34.7 ×10⁻⁶ cm/s | 60.7 nM | 13.7 | 93.7 | 3/3 | 262 nM | 8.4 | 86.8 | inhibited the growth of tumors in a dose-dependent manner | one mouse died and 1/8 | Death / survival after 9-day dosing (Sprague-Dawley rats): all three rats treated with PR00012 survived; Tolerability (Sprague-Dawley rats; rat, in vivo, 10 mg/kg): the rats were still tolerable; Mice died (HCT 116 CDX model; 30 mg/kg): No mice died
